Source: ChEMBL document CHEMBL1275392, “Assessment of chemoselective neoglycosylation methods using chlorambucil as a model” (2010)

Legend:
Assay type in all cases: functional
HT-29 [1] = assay: Ratio of compound GI50 to chlorambucil GI50 for human HT-29 cells
UACC-62 [2] = assay: Growth inhibition of human UACC62 cells after 7 days by celltiter-glo assay; settings: UACC-62, 168 h
HT-29 [3] = assay: Growth inhibition of human HT-29 cells after 7 days by celltiter-glo assay; settings: HT-29, 168 h
SR = assay: Growth inhibition of human SR cells after 7 days by celltiter-glo assay; settings: 168 h
SW-620 = assay: Growth inhibition of human SW620 cells at 10 uM after 7 days by celltiter-glo assay; settings: SW-620, 168 h, read-out: GI
CCRF-CEM = assay: Growth inhibition of human CCRF-CEM cells after 7 days by celltiter-glo assay; settings: 168 h
OVCAR-3 = assay: Growth inhibition of human OVCAR-3 cells after 7 days by celltiter-glo assay; settings: OVCAR-3, 168 h
[4] = Growth inhibition of human […] cells at 10 uM after 7 days by celltiter-glo assay; settings: 168 h, read-out: GI
HCT-116 [5] = assay: Growth inhibition of human HCT116 cells after 7 days by celltiter-glo assay; settings: HCT-116, 168 h
SF-295 = assay: Growth inhibition of human SF295 cells at 10 uM after 7 days by celltiter-glo assay; settings: SF-295, 168 h, read-out: GI
ACHN [6] = assay: Growth inhibition of human ACHN cells after 7 days by celltiter-glo assay; settings: 168 h
HT-29 [7] = assay: Growth inhibition of human HT-29 cells at 10 uM after 7 days by celltiter-glo assay; settings: HT-29, 168 h, read-out: GI
NCI-H226 = assay: Growth inhibition of human NCI-H226 cells at 10 uM after 7 days by celltiter-glo assay; settings: NCI-H226, 168 h, read-out: GI
NCI/ADR-RES [8] = assay: Growth inhibition of human NCI/ADR-RES cells at 10 uM after 7 days by celltiter-glo assay; settings: 168 h, read-out: GI
786-0 = assay: Growth inhibition of human 786-0 cells after 7 days by celltiter-glo assay; settings: 786-0, 168 h
HCC 2998 = assay: Growth inhibition of human HCC2998 cells at 10 uM after 7 days by celltiter-glo assay; settings: HCC 2998, 168 h, read-out: GI
UACC-62 [9] = assay: Growth inhibition of human UACC62 cells at 10 uM after 7 days by celltiter-glo assay; settings: UACC-62, 168 h, read-out: GI
UO-31 = assay: Growth inhibition of human UO31 cells after 7 days by celltiter-glo assay; settings: UO-31, 168 h
NCI-H522 = assay: Growth inhibition of human NCI-H522 cells at 10 uM after 7 days by celltiter-glo assay; settings: NCI-H522, 168 h, read-out: GI
SK-MEL-5 = assay: Growth inhibition of human SK-MEL-5 cells at 10 uM after 7 days by celltiter-glo assay; settings: SK-MEL-5, 168 h, read-out: GI
[10] = Growth inhibition of human Hs 578T cells at 10 uM after 7 days by celltiter-glo assay; settings: 168 h, read-out: GI
M14 = assay: Growth inhibition of human M14 cells at 10 uM after 7 days by celltiter-glo assay; settings: M14, 168 h, read-out: GI
NCI/ADR-RES [11] = assay: Growth inhibition of human NCI/ADR-RES cells after 7 days by celltiter-glo assay; settings: 168 h
A549 = assay: Growth inhibition of human A549 cells at 10 uM after 7 days by celltiter-glo assay; settings: A549, 168 h, read-out: GI
HCT-116 [12] = assay: Growth inhibition of human HCT116 cells at 10 uM after 7 days by celltiter-glo assay; settings: HCT-116, 168 h, read-out: GI
ACHN [13] = assay: Growth inhibition of human ACHN cells at 10 uM after 7 days by celltiter-glo assay; settings: 168 h, read-out: GI

For `CON(CCCc1ccc(N(CCCl)CCCl)cc1)C1OC[C@@H](O)[C@@H]1O` (stereo partly specified), the RatioGI50 (HT-29 [1]) was 12, the GI50 (UACC-62 [2]) was 1.69 µM and the GI50 (HT-29 [3]) was 0.41 µM. It also gave a GI50 (SR) of 0.386 µM, an inhibition of growth at 10 µM (SW-620) of 68.1% and a GI50 (CCRF-CEM) of 2.36 µM. The GI50 (OVCAR-3) was 15.3 µM, the inhibition of growth at 10 µM [4] was 15.9% and the GI50 (HCT-116 [5]) was 14.5 µM. For the same molecule, the inhibition of growth at 10 µM (SF-295) was 56.6%, the GI50 (ACHN [6]) was 4.34 µM and the inhibition of growth at 10 µM (HT-29 [7]) was 70.7%. The inhibition of growth at 10 µM (NCI-H226) was 84.2%, the inhibition of growth at 10 µM (NCI/ADR-RES [8]) was 61.5% and the GI50 (786-0) was 6.16 µM. The inhibition of growth at 10 µM (HCC 2998) was 73.3%, the inhibition of growth at 10 µM (UACC-62 [9]) was 52.1% and the GI50 (UO-31) was 0.856 µM. For the same molecule, the inhibition of growth at 10 µM (NCI-H522) was 52.4%, the inhibition of growth at 10 µM (SK-MEL-5) was 79% and the inhibition of growth at 10 µM [10] was 139%. It also gave an inhibition of growth at 10 µM (M14) of 67.2%, a GI50 (NCI/ADR-RES [11]) of 4.61 µM and an inhibition of growth at 10 µM (A549) of 69.7%. For the same molecule, the inhibition of growth at 10 µM (HCT-116 [12]) was 69.4% and the inhibition of growth at 10 µM (ACHN [13]) was 14.3%.
